Experimental findings from patent publication US10709697B2, “Bis-amines, compositions, and uses related to CXCR4 inhibition” (Emory University, priority 2015, dated 2020) are described below.

In data set [1] the test system is carrageenan-induced mouse paw edema. The experiment in a line: In vivo suppression against carrageenan-induced paw edema. Particulars: for Carageenan: Table 3, mice dosed 10 mg of compound per kg. The method, then: CXCR4 plays a role in the recruitment of inflammatory cells to sites of inflammation. Blocking CXCR4 is a therapeutic strategy in inflammatory diseases. A carrageenan-induced mouse paw edema model as an efficient model to evaluate the in vivo CXCR4 antagonistic activity for CXCR4 inhibitors.
Acute inflammation was induced by subcutaneous injection of 50 μL of λ-carrageenan (1% w/v in saline) into one of the hind paws of the female C57BL/6J mice (Jackson Laboratories); the other hind paw was injected with 50 μL of saline, which was used as a non-inflammation control. The selected compounds were dissolved in 10% DMSO and 90% of 45% (2-hydroxypropyl)-β-cyclodextrin (CD) in PBS. In the treatment group, compounds IIg, IIk, IIm and IIn were administered intraperitoneally (i.p.) at 10 mg/kg daily, while TN14003 was administered at 300 μg/kg, i.p., daily, 30 min following carrageenan challenge. The rationale for using 300 μg/kg for TN14003 was that this concentration was reported to be the minimum concentration needed to achieve the maximum efficacy of this compound in a […] metastasis animal model. See Yoon et al. CXC chemokine receptor-4 antagonist blocks both growth of primary tumor and metastasis of head and neck cancer in xenograft mouse models. Cancer Res., 67 (2007), pp. 7518-7524. Control animals received corresponding i.p. injections of the vehicle. The animals were sacrificed 74 h after carrageenan challenge and 2 h after the last injection of the selected compounds. The final paws were photographed and measured for thickness from the “palm” to the back of the paw with a caliper. These were compared to the volume of carrageenan-untreated contralateral paw to obtain the edema volume; the volume of the contralateral paw was subtracted from the volume of the carrageenan injected paw to obtain the edema volume. The inflammation-suppression percentage was calculated by comparing the drug-treated group to the control group.

For data set [2] the test system is unchanged. The data set is described as above. To be noted: 10 mg/kg i.p. daily; paw tissue histology.
The next data set concerns the target T1, CXCR4 (Homo sapiens, UniProt P61073).
T1 construct: endogenous in cells; host or cells: MDA-MB-231
In words: Primary binding affinity screening (competition with biotinylated TN14003). As to the method: The compounds were initially screened with a binding affinity assay. […] MDA-MB-231 cells were pre-incubated with compounds at concentrations of 1, 10, 100, and 1000 nM, then incubated with biotinylated TN14003 and streptavidin-conjugated rhodamine to determine the binding efficiency of the new compounds to the CXCL12 binding domain of CXCR4. […] Thus, this screening is a semi-quantitative, first pass measure of the level of activity.
For binding affinity assay, 2×10^4 MDA-MB-231 cells in 300 μL of cell culture medium were seeded in an 8-well slide chamber 2 days before the experiments were conducted. Various concentrations of different compounds (1, 10, 100, or 1000 nM) were added to the separate wells and incubated for 10 min at room temperature, and then the cells were fixed in 4% ice-cold paraformaldehyde. The cells were rehydrated in phosphate-buffered saline (PBS). The slides were subsequently incubated for 30 min at room temperature with 0.05 μg/mL biotinylated TN14003, washed three times with PBS, and incubated in streptavidin-rhodamine (1:150 dilution; Jackson ImmunoResearch Laboratories, West Grove, Pa.) for 30 min at room temperature. Finally, the slides were washed with PBS and mounted in an anti-fade mounting solution (Molecular Probes, Eugene, Oreg.), and the samples were analyzed on a Nikon Eclipse E800 microscope.

Data set [3] concerns CXCR4/CXCL12-mediated chemotaxis and invasion. The experiment in a line: Matrigel invasion assay. The class given is cell-based. To be noted: for inhibition at 0.1 µM: single concentration of 100 nM, CXCL12 as chemoattractant, FIG. 2, read-out: inhibitory rate, Matrigel invasion; for Invasion: Table 3, concentration used 100 nM. The text has this:
To model in vitro metastasis, a Matrigel® invasion assay was used as the functional assay. […] A layer of Matrigel® matrix-coated permeable support (8 μm pore diameter) separates the upper and lower chambers.

Setting [4] is: effective concentration = lowest concentration with significant reduction of rhodamine fluorescence, MDA-MB-231 cells, tested at 1, 10, 100, 1000 nM.

T1 sequence (P61073 whole entry): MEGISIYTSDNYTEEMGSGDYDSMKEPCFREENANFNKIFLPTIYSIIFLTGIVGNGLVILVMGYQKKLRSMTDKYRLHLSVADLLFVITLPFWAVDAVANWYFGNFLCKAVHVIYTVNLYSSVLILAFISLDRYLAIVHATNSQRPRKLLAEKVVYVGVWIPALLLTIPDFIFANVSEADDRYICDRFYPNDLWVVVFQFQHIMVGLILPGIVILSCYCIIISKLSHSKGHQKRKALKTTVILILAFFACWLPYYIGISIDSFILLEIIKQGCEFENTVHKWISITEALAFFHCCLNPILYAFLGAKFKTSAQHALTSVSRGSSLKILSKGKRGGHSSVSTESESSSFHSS

As to `CN(Cc1ccccn1)Cc1cccc(CN(C)Cc2ccccn2)n1` [IIn, N,N′-(Pyridine-2,6-diylbis(methylene))bis(N-methyl-1-(pyridin-2-yl)methanamine)], in data set [1] (10 mg/kg i.p. daily, female C57BL/6J mice, 74 h after carrageenan challenge), the “inflammation-suppression percentage (paw edema)” value turned out to be 50%. In addition, in data set [2], the “mouse paw inflammation and damage in histological assay” value was “significantly attenuated”. The EC at CXCR4 (setting [4]) stood at 10 nM. In data set [3], the inhibition at 0.1 µM amounted to 72.6%.

With `c1cc(CN2CCCCC2)ccc1CN1CCCCC1` [Ib, 1,4-Bis(piperidin-1-ylmethyl)benzene], the melting point lay in the range of 84 to 86 °C. Besides, the EC at CXCR4 (setting [4]) was 10 nM. The inhibition at 0.1 µM in data set [3] is below 50%.

Turning to `CCc1ccccc1NCc1cccc(CNc2ccccc2CC)n1` [2,6-Bis(2-ethylanilinomethyl)pyridine], in data set [1], the Carageenan was 18.1%. This compound gave an EC at CXCR4 (Table 3) of 1 nM. Further, in data set [3], the Invasion was 59%.

The compound `CN(Cc1cccc(CN(C)c2ccccc2)n1)c1ccccc1` [IId, N,N′-(Pyridine-2,6-diylbis(methylene))bis(N-methylaniline)] displayed a melting point of 91 to 93 °C. The same compound returned an EC on CXCR4 (setting [4]) of 1000 nM.

Turning to `CCc1ccc(NCc2cccc(CNc3ccc(CC)cc3)n2)cc1` [2,6-Bis(4-ethylanilinomethyl)pyridine], the Carageenan in data set [1] worked out at 42.0%. At CXCR4 (Table 3), this compound showed an EC of 1 nM. This compound also showed an Invasion in data set [3] of 64%.

The compound `CN(Cc1ccc(CN(C)c2ccccc2)cc1)c1ccccc1` [Id, N,N′-(1,4-Phenylenebis(methylene))bis(N-methylaniline)] had a melting point of 77 to 79 °C. For the same compound, on CXCR4 (setting [4]), the EC came out at 1000 nM.

As for `c1cc(CN2CCOCC2)ccc1CN1CCOCC1` [Ic, 1,4-Bis(morpholinomethyl)benzene], the melting point was 113 to 115 °C. The same compound returned an EC at CXCR4 (setting [4]) above 1000 nM.

Consider `CN(Cc1ccc(F)cc1)Cc1ccc(CN(C)Cc2ccc(F)cc2)cc1` [Ij, N,N′-(1,4-Phenylenebis(methylene))bis(1-(4-fluorophenyl)-N-methylmethanamine)], for which the melting point fell in the range of 80 to 82 °C. Further, the EC on CXCR4 (setting [4]) is on record as above 1000 nM.

In turn, `CN(Cc1ccc(CN(C)c2ccc(F)cc2)cc1)c1ccc(F)cc1` [Ie, N,N′-(1,4-phenylenebis(methylene))bis(4-fluoro-N-methylaniline)] gave a melting point of 78 to 80 °C. The same compound displayed an EC on CXCR4 (setting [4]) of 100 nM. Further, the inhibition at 0.1 µM in data set [3] was determined as 66.4%.

Regarding `c1ccc(NCc2ccc(CNc3ccccn3)cc2)nc1` [WZ811, reference compound], in data set [1], the Carageenan worked out at 40%. The compound further had an EC on CXCR4 (Table 3) of 10 nM. The same compound showed an Invasion in data set [3] of 90%.

On to `FC(F)(F)c1ccc(NCc2cccc(CNc3ccc(C(F)(F)F)cc3)n2)cc1` [2,6-Bis(4-trifluoromethylanilinomethyl)pyridine], for which the Carageenan in data set [1] was found to be 20.3%. Moreover, the EC at CXCR4 (Table 3) was 1 nM. The Invasion in data set [3] was 52%.

As for `Fc1cccc(NCc2cccc(CNc3cccc(F)c3)n2)c1` [2,6-Bis(3-fluoroanilinomethyl)pyridine], the Carageenan in data set [1] was found to be 20.3%. The EC on CXCR4 (Table 3) is given as 10 nM. The same compound had an Invasion in data set [3] of 50%.
